Source: patent US20230416233A1, “(AZA)QUINOLINE 4-AMINES DERIVATIVES AS P2X3 INHIBITORS” (CHIESI FARMACEUTICI S.P.A., priority 2020, published 2023)
Read-outs that look alike come from different tables or passages of the source.

Experiments:
h P2X3 = molecular target: T1, h P2X3 (Homo sapiens, UniProt P56373); assay: In vitro electrophysiology assay for P2X3 (Sophion Qube automated whole-cell patch clamp); type: cell-based; conditions: for h P2X3 (pIC50 range of activity): Table 3
T1 sequence (P56373 1-397): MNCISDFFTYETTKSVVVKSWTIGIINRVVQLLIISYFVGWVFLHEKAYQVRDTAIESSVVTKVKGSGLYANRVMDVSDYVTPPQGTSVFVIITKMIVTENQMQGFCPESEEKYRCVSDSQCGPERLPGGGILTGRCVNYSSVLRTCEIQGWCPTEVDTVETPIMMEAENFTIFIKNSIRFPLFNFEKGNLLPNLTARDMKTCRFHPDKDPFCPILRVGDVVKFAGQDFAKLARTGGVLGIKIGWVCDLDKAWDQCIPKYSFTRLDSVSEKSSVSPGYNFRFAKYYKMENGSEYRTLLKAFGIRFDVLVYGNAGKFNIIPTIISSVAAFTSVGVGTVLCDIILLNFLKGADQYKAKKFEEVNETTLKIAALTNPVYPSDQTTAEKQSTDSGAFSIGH
Method: In Vitro Electrophysiology Assay for P2X3
(§1) Cells expressing P2X3 receptors were grown according to standard practice and maintained at 37° C. in a 5% humidified CO2 atmosphere. The cells were seeded into T175 flask 2 days prior to the day of the assay and dissociated from the flasks using TrypLE when grown to confluence of 80-90%. The dissociated cells were resuspended in serum free media at a cell density of 3×10^6 cells/ml and loaded onto the Sophion Qube automated patch-clamp system. The extracellular assay buffer contained 145 mM NaCl, 4 mM KCl, 2 mM CaCl2, 1 mM MgCl2, 10 mM HEPES, and 10 mM glucose at pH 7.4. The intracellular assay solution contained 140 mM CsF, 10 mM NaCl, 10 mM EGTA, 10 mM HEPES at pH 7.2. Agonist stock solutions were prepared in H2O and diluted in bath solution prior to use. All antagonists were prepared as 10 mM stock solutions in DMSO and diluted in bath solution prior to use. All experiments were performed under the whole-cell patch clamp configuration at room temperature with 384 individual cells being voltage clamped at −60 mV simultaneously on the Sophion Qube instrument. Two baseline responses were established with the application of α,β-MeATP (800 nM), with the subsequent agonist applications being washed out using extracellular assay buffer containing 0.5 U/ml apyrase. Following the second agonist application, antagonist was incubated in the absence of α,β-MeATP for 10 minutes. After antagonist preincubation, 800 nM α,β-MeATP and antagonist were co-administered to determine the inhibitory effect of the antagonist. One concentration of an antagonist was assessed against a single cell, with different concentrations of the antagonist applied to other cells on the 384 recording substrate. The control P2X3 current amplitude was taken from the peak current amplitude from the second agonist response prior to preincubation with antagonist. The peak P2X3 current amplitude in the presence of antagonist was used to calculate the inhibitory effect at each concentration of the antagonist according to the following equation:
Percentage inhibition of P2X3=(P2X3 control peak amplitude−P2X3 antagonist peak amplitude)/P2X3 control peak amplitude)*100
Concentration-response curves were constructed from ten different concentrations with each concentration of antagonist tested on at least two individual cells. The concentration of the antagonist to inhibit P2X3 current by 50% (IC50) was determined by fitting the data with the following equation:
Y=a+[(b−a)/(1+10^((log c−x)d)]
Where ‘a’ is minimum response, ‘b’ is maximum response, ‘c’ is IC50 and ‘d’ is Hill slope.
The results for individual compounds are provided below in Table 2 and are expressed as range of activity.

h P2X2/3 = molecular target: T2, h P2X2/3 (Homo sapiens, UniProt P56373+Q9UBL9); assay: In vitro electrophysiology assay for P2X2/3 (same protocol as the P2X3 assay, 10 μM ATP as agonist); type: cell-based; conditions: Table 3; agonist 10 μM ATP, mean current amplitude seven seconds after agonist; read-out: h P2X2/3 (pIC50 range of activity) (converted)
T2 construct: host or cells: cells not described; same protocol as the P2X3 assay
T2 sequence (P56373 1-397): T1 sequence (P56373 1-397)
T2 sequence (Q9UBL9 1-471): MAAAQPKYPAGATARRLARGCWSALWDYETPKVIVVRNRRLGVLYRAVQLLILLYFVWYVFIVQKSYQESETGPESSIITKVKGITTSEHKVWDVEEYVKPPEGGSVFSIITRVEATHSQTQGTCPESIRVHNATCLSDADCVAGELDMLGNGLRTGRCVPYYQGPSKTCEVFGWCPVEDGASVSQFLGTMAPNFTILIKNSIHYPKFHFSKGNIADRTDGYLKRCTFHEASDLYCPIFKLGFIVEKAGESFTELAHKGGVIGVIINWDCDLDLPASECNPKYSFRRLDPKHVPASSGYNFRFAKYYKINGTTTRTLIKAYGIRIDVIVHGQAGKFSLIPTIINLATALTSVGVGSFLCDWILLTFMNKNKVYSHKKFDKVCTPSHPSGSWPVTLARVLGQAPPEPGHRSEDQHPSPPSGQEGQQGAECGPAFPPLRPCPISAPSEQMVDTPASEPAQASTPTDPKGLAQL
Method: as §1, with “The peak P2X3 current amplitude in the presence of antagonist was used to calculate the inhibitory effect at each concentration of the antagonist according to the following equation:” left out
The same assay protocol was used for the P2X2/3 assay as the P2X3 assay with two modifications: 1) 10 μM ATP was used as the agonist; and 2) the mean current amplitude was measured seven seconds after the application of agonist.

[1] = Table 2, agonist 800 nM α,β-MeATP, 10 min antagonist preincubation, peak current, read-out: h P2X3 (pIC50 range of activity) (converted)
[2] = agonist 800 nM α,β-MeATP, peak current

Compound	IC50 (h P2X3; [1]) [µM]	IC50 (h P2X2/3) [µM]	IC50 (h P2X3; in vitro assay as described for P2X3, read-out: activity on receptor P2X3 expressed as pIC50 (converted)) [µM]	h P2X3 (pIC50 range of activity) (h P2X3; [2])
Cc1ccc(CNc2cnnc3ccc(-c4ccc(F)cc4)cc23)nn1 [Example 1, 6-(4-Fluorophenyl)-N-((6-methylpyridazin-3-yl)methyl)cinnolin-4-amine]	< 0.316			
C[C@@H](Nc1cnnc2ccc(-c3ccc(F)cc3)cc12)c1cnc(C(F)(F)F)nc1 [Example 2, 6-(4-Fluorophenyl)-N-((1R)-1-(2-(trifluoromethyl)pyrimidin-5-yl)ethyl)cinnolin-4-amine]	< 0.316	0.316 to 3.16		+++ (+++: pIC50 h P2X3 or h P2X2/3 > 6.5)
Cc1cnc(-c2ccc3nncc(N[C@H](C)c4cnc(C(F)(F)F)nc4)c3c2)s1 [Example 3, 6-(5-Methylthiazol-2-yl)-N-((1R)-1-(2-(trifluoromethyl)pyrimidin-5-yl)ethyl)cinnolin-4-amine]	< 0.316			
Cc1ccc(-c2ccc3nncc(N[C@H](C)c4cnc(C(F)(F)F)nc4)c3c2)nc1 [Example 4, 6-(5-Methylpyridin-2-yl)-N-((1R)-1-(2-(trifluoromethyl)pyrimidin-5-yl)ethyl)cinnolin-4-amine]	< 0.316	0.316 to 3.16		+++ (+++: pIC50 h P2X3 or h P2X2/3 > 6.5)
Cc1ccc(-c2ccc3nncc(NCc4ccc(C)nn4)c3c2)nc1 [Example 5, N-((6-methylpyridazin-3-yl)methyl)-6-(5-methylpyridin-2-yl)cinnolin-4-amine]	< 0.316			
Cc1ccc(-c2ccc3nccc(N[C@H](C)c4cnc(C(F)(F)F)nc4)c3c2)nc1 [Example 9, (R)-6-(5-methylpyridin-2-yl)-N-(1-(2-(trifluoromethyl)pyrimidin-5-yl)ethyl) quinolin-4-amine]	< 0.316			
Cc1ccc(-c2ccc3nccc(NCc4ccc(C)nn4)c3c2)nc1 [Example 10, N-((6-methylpyridazin-3-yl)methyl)-6-(5-methylpyridin-2-yl)quinolin-4-amine]	< 0.316			
Cc1ccc(CNc2ccnc3ccc(-c4ccc(F)cc4)cc23)nn1 [Example 11, 6-(4-Fluorophenyl)-N-((6-methylpyridazin-3-yl)methyl)quinolin-4-amine]	< 0.316			
C[C@@H](Nc1ccnc2ccc(-c3ccc(F)cc3)cc12)c1cnc(C(F)(F)F)nc1 [Example 12, (R)-6-(4-fluorophenyl)-N-(1-(2-(trifluoromethyl)pyrimidin-5-yl)ethyl)quinolin-4-amine]	0.316 to 3.16			
Cc1ccc(CNc2nccc3ccc(-c4ccc(F)cc4)cc23)nn1 [comparative Example A, reference compound]			> 3.16	

Further lines, with some results ahead:

IC50 (h P2X3; [1]) [µM]	IC50 (h P2X2/3) [µM]	IC50 (h P2X3; in vitro assay as described for P2X3, read-out: activity on receptor P2X3 expressed as pIC50 (converted)) [µM]	Compound	h P2X3 (pIC50 range of activity) (h P2X3; [2])
< 0.316			COc1cc(-c2ccc(F)cc2)cc2c(N[C@H](C)c3ccc(C)nn3)cnnc12 [Example 6, (R)-6-(4-fluorophenyl)-8-methoxy-N-(1-(6-methylpyridazin-3-yl)ethyl)cinnolin-4-amine]	
< 0.316			COc1cc(-c2ccc(F)cc2)cc2c(N[C@H](C)c3cnc(C(F)(F)F)nc3)cnnc12 [Example 7, (R)-6-(4-fluorophenyl)-8-methoxy-N-(1-(2-(trifluoromethyl)pyrimidin-5-yl)ethyl)cinnolin-4-amine]	
< 0.316	3.16 to 31.6		COc1cc(-c2ncc(C)cn2)cc2c(N[C@H](C)c3ccc(C)nn3)cnnc12 [Example 8, (R)-8-methoxy-N-(1-(6-methylpyridazin-3-yl)ethyl)-6-(5-methylpyrimidin-2-yl)cinnolin-4-amine]	+++ (+++: pIC50 h P2X3 or h P2X2/3 > 6.5)
< 0.316			Cc1ccc([C@@H](C)Nc2cnnc3ccc(-c4ccc(F)cc4)cc23)nn1 [Example 13, 6-(4-Fluorophenyl)-N-[(1R)-1-(6-methylpyridazin-3-yl)ethyl]cinnolin-4-amine]	
